Reference: patent US11578040B2, “[5]Helicene derivatives as molecular reporters for diagnostic applications and methods of synthesis therefor” (NATIONAL SCIENCE AND TECHNOLOGY DEVELOPMENT AGENCY, priority 2016, dated 2023)

Experiments:
[1] = system: antigen; test: Testing of binding reactivity of antibody after conjugation with molecular reporter on 96-well plates (HRP-labeled anti-mouse antibody, signal at 450 nm); details: 2 μg/mL conjugated antibody, antigen-coated 96-well plate
Method: The binding reactivity of antibody conjugating molecular reporter (compound 6, compound 8, and compound 14) to antigen could be tested with an immobilization of antigen on wells of 96-well plates. The molecular reporter conjugated antibody was added into the wells. The antibody would bind to the antigen coating wells. Horseradish peroxidase labeled antibody specific to mouse antibody was used as a reporter molecule for reporting binding reactivity. The results of molecular reporter conjugated antibody were compared with results of antibody without molecular reporter conjugation.
The method for testing binding reactivity of molecular reporter conjugated antibody and antigen in 96-well plate consists of the following steps. • a) Prepare 2 μg/mL of antigen in carbonate buffer containing 50 mM carbonate, pH 9.6, and immobilize antigen (100 μL/well) in 96-well plate. • b) Incubate 96-well plate in step 1 at 4° C. for 12-16 hours. • c) Block non-specific binding with 300 μL/well of 2% bovine serum albumin in phosphate-buffered saline containing 0.05% Tween (PBST), and incubate at room temperature for 1 hour. • d) Wash 96-well plates in step 3 with 300 μL/well of PBST for 3 times. • e) Add 100 μL/ well of 2 μg/mL of antibody conjugating molecular reporter (compound 6, compound 8, and compound 14), and incubate at room temperature for 1 hour. • f) Wash 96-well plates in step 5 with 300 μL/well of PBST for 3 times. • g) Add 100 μL/well of horseradish peroxidase labeled antibody specific to mouse antibody (dilution at 1:10,000), and incubate at room temperature for 1 hour. • h) Wash 96-well plates in step 7 with 300 μL/well of PBST for 3 times. • i) Add 100 μL/well of substrate solution for horseradish peroxidase which is 3,3′,5,5′-Tetramethylbenzidine, and incubate at room temperature for 30 minutes. • j) Add 50 μL/well of sulfuric acid (H2SO4) for stop reaction. • k) Measure signals at 450 nm.

melting point [°C] | Compound | binding of antibody conjugating molecular reporter to antigen (FIG. 5) [1] | effect of molecular reporter on binding reactivity of antibody compared with antibody without any conjugation (FIG. 5) [1]
– | N#Cc1c(C#N)c2ccc3cc(OCCCCCC(=O)O)ccc3c2c2c1ccc1cc(OCCCCCC(=O)O)ccc12 [compound 6, 6,6′-((3,4-dicyanodibenzo[c,g]phenanthrene-8,13-diyl)bis(oxy))dihexanoic acid] | antibody could bind to antigen | did not affect the binding reactivity of antibody
135 to 139 | N#Cc1c(C#N)c2c(c3c1CCc1cc(OCCCCCC=O)ccc1-3)-c1ccc(OCCCCCC=O)cc1CC2 [compound 8, 8,13-bis((6-oxohexyl)oxy)-1,2,5,6-tetrahydrodibenzo[c,g]phenanthrene-3,4-dicarbonitrile] | antibody could bind to antigen | did not affect the binding reactivity of antibody
